Laboratory results reported in patent US7351703B2, “Sulfonylamino carboxylic acid N-arylamides as guanylate cyclase activators” (Sanofi-Aventis Deutschland GmbH, priority 1999, dated 2008).

Columns and labels:
[1] = target: T1, soluble guanylate cyclase (sGC) (Bos taurus, UniProt P16068); assay: Activation of soluble guanylate cyclase (cGMP enzyme immunoassay); type: biochemical; settings: sGC isolated from bovine lung, stimulation of basal enzyme activity vs solvent control
T1 construct: The sGC employed had been isolated from bovine lung; from tissue; host or cells: bovine lung
T1 sequence (P16068 1-619): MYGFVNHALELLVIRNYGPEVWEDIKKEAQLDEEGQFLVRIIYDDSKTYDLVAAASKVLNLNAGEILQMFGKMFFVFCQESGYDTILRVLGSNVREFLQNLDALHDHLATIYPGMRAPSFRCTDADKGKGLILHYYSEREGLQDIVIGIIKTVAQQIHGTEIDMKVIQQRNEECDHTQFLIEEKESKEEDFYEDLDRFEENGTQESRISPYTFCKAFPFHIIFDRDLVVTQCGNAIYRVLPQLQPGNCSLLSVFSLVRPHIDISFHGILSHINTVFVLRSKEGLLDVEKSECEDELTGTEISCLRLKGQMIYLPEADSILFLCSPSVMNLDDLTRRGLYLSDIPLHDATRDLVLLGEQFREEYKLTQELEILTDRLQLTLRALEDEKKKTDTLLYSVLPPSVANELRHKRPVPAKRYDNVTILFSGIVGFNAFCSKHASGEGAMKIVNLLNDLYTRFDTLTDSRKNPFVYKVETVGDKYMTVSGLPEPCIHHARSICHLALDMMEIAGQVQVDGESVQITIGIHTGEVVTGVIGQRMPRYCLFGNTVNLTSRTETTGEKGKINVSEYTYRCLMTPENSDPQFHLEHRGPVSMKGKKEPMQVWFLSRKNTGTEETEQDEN
T1 sequence (P19687 1-691 partner): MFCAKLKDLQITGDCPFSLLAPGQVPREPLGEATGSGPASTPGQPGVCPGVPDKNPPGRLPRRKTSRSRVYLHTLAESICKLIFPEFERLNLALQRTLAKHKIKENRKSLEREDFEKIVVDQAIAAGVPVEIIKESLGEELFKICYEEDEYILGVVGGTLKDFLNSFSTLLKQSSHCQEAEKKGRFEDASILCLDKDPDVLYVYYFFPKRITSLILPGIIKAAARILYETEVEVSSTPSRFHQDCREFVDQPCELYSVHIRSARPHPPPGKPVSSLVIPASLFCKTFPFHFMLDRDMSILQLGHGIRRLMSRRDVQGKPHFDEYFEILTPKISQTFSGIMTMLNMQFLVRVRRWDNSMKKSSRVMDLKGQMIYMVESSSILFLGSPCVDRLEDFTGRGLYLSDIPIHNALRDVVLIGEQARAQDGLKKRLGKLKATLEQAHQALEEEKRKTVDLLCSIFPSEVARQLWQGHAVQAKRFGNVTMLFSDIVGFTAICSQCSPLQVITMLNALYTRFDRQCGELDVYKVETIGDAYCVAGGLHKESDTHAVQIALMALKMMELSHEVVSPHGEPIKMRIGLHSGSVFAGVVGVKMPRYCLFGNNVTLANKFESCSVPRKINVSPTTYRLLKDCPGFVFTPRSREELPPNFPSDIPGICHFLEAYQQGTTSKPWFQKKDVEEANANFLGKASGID
Method: The activation of soluble guanylate cyclase (sGC), which catalyzes the conversion of guanosine triphosphate (GTP) to cyclic guanosine monophosphate (cGMP) and pyrophosphate, by the compounds according to the invention was quantified with the aid of an enzyme immunoassay (EIA) from Amersham. For this, the test substances were first incubated with sGC in microtiter plates and then the quantity of the resulting cGMP was determined.
The sGC employed had been isolated from bovine lung (see Methods in Enzymology, Volume 195, p. 377). The test solutions (100 μl per well) contained 50 mM triethanolamine (TEA) buffer (pH 7.5), 3 mM MgCl2, 3 mM reduced glutathione (GSH), 0.1 mM GTP, 1 mM 3-isobutyl-1-methylxanthine (IBMX), suitably diluted enzyme solution and the test substance or, in the control experiments, solvent. The test substances were dissolved in dimethyl sulfoxide (DMSO) and the solution was diluted with DMSO/water such that the final concentration c of test substance in the test batch had the value indicated below. The DMSO concentration in the test batch was 5% (v/v). The reaction was started by addition of the sGC. The reaction mix was incubated at 37° C. for 15 to 20 minutes and then stopped by ice-cooling and addition of the stop reagent (50 mM EDTA, pH 8.0). An aliquot of 50 μl was taken and employed for the determination of the cGMP content using the acetylation protocol of the Amersham cGMP EIA kit. The absorption of the samples was measured at 450 nm (reference wavelength 620 nm) in a microtiter plate reading apparatus. The cGMP concentration was determined by means of a calibration curve, which was obtained under the same experimental conditions. The activation of the sGC by a test substance is indicated as n-fold stimulation of the basal enzyme activity which was found in the control experiments (with solvent instead of test substance) (calculated according to the formula n-fold stimulation=[cGMP]test substance/[cGMP]control).

melting point [°C] | n-fold stimulation ([1]; concentration c 100 μM) [n-fold] | Compound | also measured
74.5 | – | COc1cc(NC(=O)c2cc(Cl)ccc2NS(=O)(=O)c2ccc(Cl)cc2)cc(OC)c1 [Example 32, 5-Chloro-2-(4-chlorophenylsulfonylamino)-N-(3,5-dimethoxyphenyl)benzamide] | –
163.5 | – | COc1cccc(NC(=O)c2cc(Cl)ccc2NS(=O)(=O)c2ccc(Cl)cc2)c1 [Example 31, 5-Chloro-2-(4-chlorophenylsulfonylamino)-N-(3-methoxyphenyl)benzamide] | –
182 | – | O=C(Nc1ccccc1C(F)(F)F)c1cc(Cl)ccc1NS(=O)(=O)c1ccc(Cl)cc1 [Example 30, 5-Chloro-2-(4-chlorophenylsulfonylamino)-N-(2-trifluoromethylphenyl)benzamide] | –

More lines, now with the values behind:

Compound | melting point [°C] | n-fold stimulation ([1]; concentration c 100 μM) [n-fold] | also measured
O=C(Nc1cc(-c2cccs2)n[nH]1)c1cc(Cl)ccc1NS(=O)(=O)c1ccc(Cl)cc1 [Example 27, 5-Chloro-2-(4-chlorophenylsulfonylamino)-N-(3-(2-thienyl)pyrazol-5-yl)benzamide] | 117 | – | –
O=C(Nc1ccc(Nc2ccccc2)cc1)c1cc(Cl)ccc1NS(=O)(=O)c1ccc(Cl)cc1 [Example 22, 5-Chloro-2-(4-chlorophenylsulfonylamino)-N-(4-(phenylamino)phenyl)benzamide] | 192.5 | – | –
O=C(Nc1ccc(Br)cc1)c1cc(Cl)ccc1NS(=O)(=O)c1ccc(Cl)cc1 [Example 9, 5-Chloro-2-(4-chlorophenylsulfonylamino)-N-(4-bromophenyl)benzamide] | 210 | 1.6 | –
CC(C)c1ccc(NC(=O)c2cc(Cl)ccc2NS(=O)(=O)c2ccc(Cl)cc2)cc1 [Example 16, 5-Chloro-2-(4-chlorophenylsulfonylamino)-N-(4-isopropylphenyl)benzamide] | 188 | 4.1 | –
CCN(CC)Cc1cc(NC(=O)c2cc(Cl)ccc2NS(=O)(=O)c2ccc(Cl)cc2)ccc1O [Example 93, 5-Chloro-2-(4-chlorophenylsulfonylamino)-N-(3-diethylaminomethyl-4-hydroxyphenyl)benzamide] | – | – | n-fold stimulation ([1]; concentration c 50 μM): 1.5 n-fold
N#CC(c1ccccc1)c1ccc(NC(=O)c2cc(Cl)ccc2NS(=O)(=O)c2ccc(Cl)cc2)cc1 (centres unmarked) [Example 97, 5-Chloro-2-(4-chlorophenylsulfonylamino)-N-(4-(cyanophenylmethyl)phenyl)benzamide] | – | – | n-fold stimulation ([1]; concentration c 12.5 μM): 4.9 n-fold
O=C(Nc1ccc(Oc2ccc(Cl)cc2)cc1)c1cc(Cl)ccc1NS(=O)(=O)c1ccc(Cl)cc1 [Example 6, 5-Chloro-2-(4-chlorophenylsulfonylamino)-N-(4-(4-chlorophenoxy)phenyl)benzamide] | 207 | 4.2 | –
COc1ccc(C(F)(F)F)cc1NC(=O)c1cc(Cl)ccc1NS(=O)(=O)c1ccc(Cl)cc1 [Example 29, 5-Chloro-2-(4-chlorophenylsulfonylamino)-N-(2-methoxy-5-trifluoromethylphenyl)benzamide] | 164.5 | – | –
O=C(Nc1cc(C(F)(F)F)cc(C(F)(F)F)c1)c1cc(Cl)ccc1NS(=O)(=O)c1ccc(Cl)cc1 [Example 28, 5-Chloro-2-(4-chlorophenylsulfonylamino)-N-(3,5-bis-trifluoromethylphenyl)benzamide] | 182.5 | – | –
O=C(Nc1cccc(C(F)(F)F)c1)c1cc(Br)ccc1NS(=O)(=O)c1ccc(Cl)cc1 [Example 2, 5-Bromo-2-(4-chlorophenylsulfonylamino)-N-(3-trifluoromethylphenyl)benzamide] | 220 | 9.2 | –
O=C(Nc1ccc(Oc2ccccc2)cc1)c1ccccc1NS(=O)(=O)c1ccc(Cl)cc1 [Example 7, 2-(4-Chlorophenylsulfonylamino)-N-(4-phenoxyphenyl)benzamide] | 143 | 2.8 | –
O=C(Nc1cccc(C(F)(F)F)c1)c1ccccc1NS(=O)(=O)c1ccc(Cl)cc1 [Example 1, 2-(4-Chlorophenylsulfonylamino)-N-(3-trifluoromethylphenyl)benzamide] | 169 | 3.6 | –
O=C(Nc1ccc(OCc2ccccc2)cc1)c1cc(Cl)ccc1NS(=O)(=O)c1ccc(Cl)cc1 [Example 23, 5-Chloro-2-(4-chlorophenylsulfonylamino)-N-(4-(benzyloxy)phenyl)benzamide] | 191 | – | n-fold stimulation ([1]; concentration c 25 μM): 2.2 n-fold
Cc1cncc(NC(=O)c2cc(Cl)ccc2NS(=O)(=O)c2ccc(Cl)cc2)n1 [Example 26, 5-Chloro-2-(4-chlorophenylsulfonylamino)-N-(5-methylpyrazin-3-yl)benzamide] | 248 | – | –
O=C(Nc1ccc(Oc2ccc(Cl)c3ccccc23)c(Cl)c1)c1cc(Cl)ccc1NS(=O)(=O)c1ccc(Cl)cc1 [Example 19, 5-Chloro-2-(4-chlorophenylsulfonylamino)-N-(3-chloro-4-(4-chloronaphthalene-1-yloxy)phenyl)benzamide] | – | 26.3 | –
COc1ccc(S(=O)(=O)Nc2ccc(Cl)cc2C(=O)Nc2ccc(F)cc2)cc1Cl [Example 17] | – | 2 | –
5-Chloro-2-(4-chlorophenylsulfonylamino)-N-(quinolinsyl)benzamide [Example 111] | – | – | n-fold stimulation ([1]; concentration c 50 μM): 6.1 n-fold
O=C(Nc1ccc(Cl)c(Cl)c1)c1cc(Cl)ccc1NS(=O)(=O)c1ccc(Cl)cc1 [Example 8, 5-Chloro-2-(4-chlorophenylsulfonylamino)-N-(3,4-dichlorophenyl)benzamide] | – | – | n-fold stimulation ([1]; concentration c 10 μM): 5.3 n-fold
O=C(Nc1ccc(N2CCCC2=O)cc1)c1cc(Cl)ccc1NS(=O)(=O)c1ccccc1 [Example 25] | – | – | n-fold stimulation ([1]; concentration c 50 μM): 2.4 n-fold
O=C(O)CNC(=O)c1ccc(NC(=O)c2cc(Cl)ccc2NS(=O)(=O)c2ccc(Cl)cc2)cc1 [Example 102, (4-(5-Chloro-2-(4-chlorophenylsulfonylamino)benzoylamino)benzoylamino)acetic acid] | – | – | n-fold stimulation ([1]; concentration c 50 μM): 1.7 n-fold
O=C(O)Cc1cccc(NC(=O)c2cc(Cl)ccc2NS(=O)(=O)c2ccc(Cl)cc2)c1 [Example 108, (3-(5-Chloro-2-(4-chlorophenylsulfonylamino)benzoylamino)phenyl)acetic acid] | – | – | n-fold stimulation ([1]; concentration c 50 μM): 2.5 n-fold
O=C(Nc1ccc(C(=O)N2CCOCC2)cc1)c1cc(Cl)ccc1NS(=O)(=O)c1ccc(Cl)cc1 [Example 33, 5-Chloro-2-(4-chlorophenylsulfonylamino)-N-(4-(morpholine-4-carbonyl)phenyl)benzamide] | – | – | n-fold stimulation ([1]; concentration c 50 μM): 3.8 n-fold
